Reference: patent US6812243B2, “Indole derivatives and their use for the treatment of malignant and other diseases based on pathological proliferation” (Zentaris AG, priority 1998, dated 2004)
Read-outs that look alike come from different tables or passages of the source. One block for each compound: values may come before it.

Assays:
[1] = biological target: T1, EGF receptor tyrosine kinase (Homo sapiens, UniProt P00533); assay: EGFR phosphorylation in intact A 431 cells; type: cell-based; details: intact A431 cells; read-out: EGFR phosphorylation in vivo (A 431 cells), IC 50
T1 construct: tested in intact A431 cells; endogenous in cells; host or cells: A431 cells
Procedure: The compounds according to the invention were furthermore investigated in vitro using isolated plasma membranes of Swiss 3T3 cells and using PDGF receptor purified from overexpressing cells, tested in intact A431 cells (and in some cases also in Swiss 3T3 plasma membranes) for possible inhibition of the EGF receptor tyrosine kinase and tested for inhibition of recombinant Src kinase.
30 μM. The compounds thus have specificity for the inhibition of the PDGF receptor tyrosine kinase in relation to other tyrosine kinases.

Swiss 3T3 cells = assay: DNA synthesis in growth factor stimulated Swiss 3T3 cells; type: cell-based
Text: DNA synthesis tests in Swiss 3T3 cells which are stimulated with different growth factors are suitable for characterizing selective antiproliferative actions of receptor tyrosine kinase inhibitors. The compounds were investigated with respect to their action on the DNA sythesis stimulated in these cells by PDGF-BB, bFGF, FCS and the combination of EGF and insulin. These stimulants are approximately equipotent and increase the DNA synthesis in previously growth-arrested Swiss 3T3 cells to 5- to 20-fold.

[2] = system: sis-transformed NIH3T3 cells; assay: Colony formation of sis-3T3 cells in soft agar; type: cell-based; details: Mus musculus, read-out: Colony formation (sis-3T3 cells), IC 50
Text: Furthermore, the compounds were investigated for a possible antitransforming action using sis-transformed NIH3T3 cells. In these cells, a transformed phenotype characterized, inter alia, by irregular multilayered growth and colony formation in soft agar is maintained by expression of PDGF-BB and permanent activation of the endogenous PDGF receptors.

PDGF receptor = biological target: T2, PDGF receptor (Mus musculus, UniProt P05622); assay: Inhibition of PDGF-dependent tyrosine phosphorylation in intact Swiss 3T3 cells; type: cell-based; details: 2 h incubation with compound, PDGF-BB 100 ng/ml for 5 min, read-out: IC 50 (μM), inhibition of PDGF-dependent tyrosine phosphorylation
T2 construct: other: Swiss 3T3 cells, 2 h incubation with compound; PDGFR phosphorylation in vivo (Swiss 3T3 cells), IC 50; other: intact Swiss 3T3 cells; PDGFR phosphorylation in vitro (Swiss 3T3 membranes), IC 50; other: isolated plasma membranes of Swiss 3T3 cells
T2 sequence (P05622 32-1098): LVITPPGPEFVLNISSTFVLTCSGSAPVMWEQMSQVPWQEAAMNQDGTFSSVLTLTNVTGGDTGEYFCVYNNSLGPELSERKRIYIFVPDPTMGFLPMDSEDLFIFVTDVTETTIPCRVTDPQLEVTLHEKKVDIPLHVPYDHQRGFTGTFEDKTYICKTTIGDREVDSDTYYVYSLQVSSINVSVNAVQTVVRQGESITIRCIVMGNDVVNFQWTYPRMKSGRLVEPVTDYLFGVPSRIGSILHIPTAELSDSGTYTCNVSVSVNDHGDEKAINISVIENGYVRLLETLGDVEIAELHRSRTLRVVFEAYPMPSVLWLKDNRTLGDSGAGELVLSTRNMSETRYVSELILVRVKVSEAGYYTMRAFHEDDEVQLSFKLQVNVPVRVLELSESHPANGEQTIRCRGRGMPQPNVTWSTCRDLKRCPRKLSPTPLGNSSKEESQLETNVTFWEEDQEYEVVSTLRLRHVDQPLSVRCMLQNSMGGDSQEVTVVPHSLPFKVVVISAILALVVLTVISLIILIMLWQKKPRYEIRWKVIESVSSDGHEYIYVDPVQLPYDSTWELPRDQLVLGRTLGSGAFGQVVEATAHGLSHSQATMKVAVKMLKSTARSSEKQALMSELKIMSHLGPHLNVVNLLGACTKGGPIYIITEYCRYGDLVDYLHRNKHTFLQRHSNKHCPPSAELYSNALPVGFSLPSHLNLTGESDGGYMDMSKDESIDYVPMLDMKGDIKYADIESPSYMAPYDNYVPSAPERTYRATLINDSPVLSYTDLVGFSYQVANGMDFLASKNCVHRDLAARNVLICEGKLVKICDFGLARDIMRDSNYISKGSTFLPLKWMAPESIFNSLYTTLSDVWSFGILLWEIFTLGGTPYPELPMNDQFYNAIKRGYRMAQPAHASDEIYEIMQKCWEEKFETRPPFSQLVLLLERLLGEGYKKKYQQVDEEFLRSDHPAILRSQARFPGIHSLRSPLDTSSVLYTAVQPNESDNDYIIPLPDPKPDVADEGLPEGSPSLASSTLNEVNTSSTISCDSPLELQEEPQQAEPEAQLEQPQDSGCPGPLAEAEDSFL
Procedure: Swiss 3T3 cells are cultured for 1 week under standard conditions (DMEM with glutamine, 4 g of glucose/1, 10% FCS, antibiotics, 5-7.5% CO2) and are confluent and no longer proliferating at the end of the culture period. The medium is replaced by serum-free DMEM and the cells are incubated at 37° C. for 2 h with the compounds according to the invention or, in control experiments, with DMSO (final concentration 0.1-1%). The cells are then stimulated at room temperature for 5 min by addition of PDGF-BB to a final concentration of 100 ng/ml, in controls addition of the corresponding solvent takes place. The cells are then washed twice with ice-cold PBS and lysed in a Triton X-100-containing lysis buffer (composition and process as described in Selective platelet-derived growth factor receptor kinase blockers reverse sis-transformation M. Kovalenko, A. Gazit, A. Böhmer, C. Rorsman, L. Rönnstrand, C. H. Heldin, J. Waltenberger, F. D. Böhmer, A. Levitzki (1994) Cancer Res. 54, 6106-6114). The lysates are centrifuged and the protein concentration is determined. […]
Tyrosine phosphorylation is detected by standard processes using antiphosphosphotyrosine [sic]antibodies. […] Quantification is carried out either by grey value analyses of films used for the luminescence detection or directly using a luminometer. […]

T1 sequence (P00533 25-1210): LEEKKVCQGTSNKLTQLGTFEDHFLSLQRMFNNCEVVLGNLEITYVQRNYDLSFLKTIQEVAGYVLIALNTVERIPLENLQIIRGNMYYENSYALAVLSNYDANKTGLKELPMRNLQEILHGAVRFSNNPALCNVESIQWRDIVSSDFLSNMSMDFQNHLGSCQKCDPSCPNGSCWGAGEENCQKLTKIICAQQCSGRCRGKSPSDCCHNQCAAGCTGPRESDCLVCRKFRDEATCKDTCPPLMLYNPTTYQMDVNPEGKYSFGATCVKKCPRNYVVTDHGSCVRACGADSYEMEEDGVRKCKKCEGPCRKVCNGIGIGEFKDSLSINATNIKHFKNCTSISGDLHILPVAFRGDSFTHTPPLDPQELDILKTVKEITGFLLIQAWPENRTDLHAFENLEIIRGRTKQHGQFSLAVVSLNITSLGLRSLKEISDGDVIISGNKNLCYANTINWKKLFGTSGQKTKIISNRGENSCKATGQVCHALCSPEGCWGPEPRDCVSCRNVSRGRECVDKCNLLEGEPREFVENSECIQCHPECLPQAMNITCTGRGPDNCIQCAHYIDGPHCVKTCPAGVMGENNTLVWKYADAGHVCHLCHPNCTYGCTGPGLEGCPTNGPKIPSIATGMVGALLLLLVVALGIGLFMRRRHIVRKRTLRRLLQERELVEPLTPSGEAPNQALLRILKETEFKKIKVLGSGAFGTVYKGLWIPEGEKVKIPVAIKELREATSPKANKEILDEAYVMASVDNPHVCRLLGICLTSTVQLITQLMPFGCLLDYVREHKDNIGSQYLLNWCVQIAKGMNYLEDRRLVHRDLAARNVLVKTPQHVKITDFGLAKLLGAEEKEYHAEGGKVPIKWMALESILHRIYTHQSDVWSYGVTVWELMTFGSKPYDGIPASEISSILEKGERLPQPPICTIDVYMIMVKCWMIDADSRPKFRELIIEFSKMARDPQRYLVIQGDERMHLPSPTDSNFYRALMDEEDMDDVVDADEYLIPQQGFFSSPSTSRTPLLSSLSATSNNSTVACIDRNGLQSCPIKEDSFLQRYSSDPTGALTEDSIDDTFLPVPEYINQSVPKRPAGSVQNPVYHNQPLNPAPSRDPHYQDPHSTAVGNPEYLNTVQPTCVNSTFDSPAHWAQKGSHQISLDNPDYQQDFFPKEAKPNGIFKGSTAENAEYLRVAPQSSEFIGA

IC50 [1]: > 10 µM
Structure (SMILES): O=C(c1cc2ccccc2[nH]1)c1cc2ccccc2[nH]1 [Example 19, Bisindol-2-ylmethan-1-one]
IC50 (Swiss 3T3 cells; Swiss-3T3, read-out: DNA synthesis (Swiss 3T3 cells), 10% FCS, IC 50): > 30 µM
IC50 (Swiss 3T3 cells; Swiss-3T3, read-out: DNA synthesis (Swiss 3T3 cells), EGF/insulin-stimulated, IC 50): > 30 µM
IC50 (Swiss 3T3 cells; Swiss-3T3, read-out: DNA synthesis (Swiss 3T3 cells), FGF-stimulated, IC 50): 3 to 10 µM
IC50 (Swiss 3T3 cells; Swiss-3T3, read-out: DNA synthesis (Swiss 3T3 cells), PDGF-stimulated, IC 50): 3 to 10 µM
IC50 [2]: 3 to 10 µM

IC50 [1]: > 10 µM
melting point: 233 to 235 °C
Structure (SMILES): COc1ccc2[nH]c(C(=O)c3cc4ccccc4[nH]3)cc2c1 [Example 20, (5-Methoxyindol-2-yl)-(indol-2-yl)methan-1-one]

IC50 (PDGF receptor): 0.3 to 1 µM
Structure (SMILES): O=C(Cc1cccs1)Oc1ccc2[nH]c(C(=O)c3cc4ccccc4[nH]3)cc2c1 [Example 58]

melting point: 190 °C (dec.)
Structure (SMILES): CN1C(=O)C(Br)=C(c2c(CCCCc3[nH]c4ccccc4c3C3=C(Br)C(=O)N(C)C3=O)[nH]c3ccccc23)C1=O [Example 117, 3-Bromo-4-(2-(4-(3-(4-bromo-1-methyl-2,5-dioxo-2,5-dihydro-1H-3-pyrrolyl)-1H-2-indolyl)butyl)-1H-3-indolyl)-1-methyl-2,5-dihydro-1H-pyrrole-2,5-dione]

melting point: 185 °C (dec.)
Structure (SMILES): CN1C(=O)C(Br)=C(c2c(CCCCCCCCc3[nH]c4ccccc4c3C3=C(Br)C(=O)N(C)C3=O)[nH]c3ccccc23)C1=O [Example 118, 3-Bromo-4-(2-(8-(3-(4-bromo-1-methyl-2,5-dioxo-2,5-dihydro-1H-3-pyrrolyl)-1H-2-indolyl)octyl)-1H-3-indolyl)-1-methyl-2,5-dihydro-1H-pyrrole-2,5-dione]

melting point: 164 °C (dec.)
Structure (SMILES): O=C1NC(=O)C(c2c(CCCCCCCCCCc3[nH]c4ccccc4c3C3=C(Br)C(=O)NC3=O)[nH]c3ccccc23)=C1Br [Example 120, 3-Bromo-4-(2-(10-(3-(4-bromo-2,5-dioxo-2,5-dihydro-1H-3-pyrrolyl)-1H-2-indolyl)decyl)-1H-3-indolyl)-2,5-dihydro-1H-pyrrole-2,5-dione]

melting point: 262 °C
Structure (SMILES): CN1C(=O)C(c2c(CCCCCc3[nH]c4ccccc4c3C3=C(N4CCCCC4)C(=O)N(C)C3=O)[nH]c3ccccc23)=C(N2CCCCC2)C1=O [Example 124, 1-Methyl-3-(1-piperidinyl)-4-(2-(5-(3-(1-methyl-4-(1-piperidinyl)-2,5-dioxo-2,5-dihydro-1H-3-pyrrolyl)-1H-2-indolyl)pentyl)-1H-3-indolyl)-2,5-dihydro-1H-pyrrole-2,5-dione]
